Source: PMC5725799, “Comparative binding properties of the tau PET tracers THK5117, THK5351, PBB3, and T807 in postmortem Alzheimer brains” (Alzheimer's Research & Therapy, 2017)
pKi: −log10 of the molar value.

What was measured:
tau [1] = biological target: tau (Homo sapiens, UniProt P10636); test: Competition binding assay with ^3H-THK5351 in postmortem hippocampus brain homogenates; settings: vs ^3H-THK5351 1.5 nM, AD hippocampus homogenate; read-out: Ki2 (high-affinity site)
Description: Postmortem brain tissues from three patients with AD and three healthy control subjects were used for the in vitro binding assays. All the brain tissue, which came from the Netherlands Brain Bank, had been homogenized in PBS containing a protease/phosphatase inhibitor (see Table 1).
After 2-h incubation at room temperature, the binding assay was terminated by filtration through glass fiber filters presoaked for at least 3 h in 0.3% polyethylenimine. To do so, the filters were rinsed and filtered three times using cold binding buffer, and then the radiation on the filter was quantified using a Beckman Coulter scintillation counter. The data for the regional binding distribution studies were analyzed using Prism version 7.0 software for Mac (GraphPad Software Inc., La Jolla, CA, USA), and two-way analysis of variance with multiple comparisons was performed.

tau [2] = test: ^3H-THK5351 competition autoradiography with unlabeled THK5351, T807 and deprenyl; format: binding, human; settings: cortical areas
Description: Six adjacent sections from AD1 (see Table 1) were used for competition autoradiography of unlabeled THK5351, T807, and deprenyl. After reaching room temperature, the frozen sections were preincubated for 10 minutes with PBS (pH 7.4) and then incubated for 1 h at room temperature with ^3H-THK5351 (1.5 nM) in addition to 10 μM unlabeled THK5351; 10 μM unlabeled deprenyl; 10 μM unlabeled T807; 10 μM unlabeled THK5351 and 10 μM unlabeled deprenyl; 10 μM unlabeled T807 and 10 μM unlabeled deprenyl. The sections were rinsed three times in cold buffer for 5 minutes, followed by a quick dip in cold distilled water. Nonspecific binding was determined using 10 μM unlabeled THK5351 or 10 μM unlabeled THK5117. […]
(§1) For all the autoradiography studies, the regions of interest were drawn manually on the autoradiogram using multigauge software and were used for the semiquantitative analyses. Photostimulated luminescence per square millimeter (PSL/mm^2) was transformed to picomoles per cubic millimeter using a transformation factor that took into account the resolution of the image, the pixel value for the concentration of ligand, and the thickness of the sections: (PSL/mm^2 value)/([pixel value per pmol] × [(resolution/1000)^2] × [cryosection thickness]/1000).

tau [3] = test: ^11C-THK5351 autoradiography and competition on large frozen AD brain sections; format: binding, human; design: Total Binding / NSP Binding: unit not given here
Description: (§2) Adjacent sections were used for autoradiography with ^11C-THK5351, ^11C-PBB3, and ^18F-T807. The frozen sections were allowed to reach room temperature, incubated for 30 minutes at room temperature with ^11C-THK5351 (0.4–0.56 nM; specific activity 356–532 GBq/μmol) or ^11C-PBB3 (0.25–0.34 nM; specific activity 442–794 GBq/μmol) or for 55 minutes at room temperature with ^18F-T807 (0.04 nM; specific activity 281 GBq/μmol). We used 10 μM unlabeled THK5351, 10 μM unlabeled PBB3, and 10 μM unlabeled T807 to determine the extent of nonspecific binding for each tracer. The sections were rinsed three times for 5 minutes each with cold binding buffer, followed by a quick dip in cold distilled water. The sections were dried and exposed for 1 h (for ^11C-THK5351 and ^11C-PBB3) or for 3 h (^18 F-T807) on a phosphor imaging plate and then read using the BAS-2500 phosphor imager.
as §1

tau [4] = test: ^18F-T807 autoradiography and competition on large frozen AD brain sections; format: binding, human; design: Total Binding / NSP Binding: unit not given here; settings: vs Unlabelled T807
Description: as §2, §1

[5] = AD1, Basal ganglia, vs Unlabelled T807
[6] = AD1, Basal ganglia, vs Unlabelled THK5351
[7] = AD1, Frontal cortex, vs Unlabelled T807
[8] = AD1, Frontal cortex, vs Unlabelled THK5351
[9] = AD1, Insula, vs Unlabelled T807
[10] = AD1, Insula, vs Unlabelled THK5351
[11] = AD1, Temporal cortex, vs Unlabelled T807
[12] = AD1, Temporal cortex, vs Unlabelled THK5351
[13] = AD2, Basal ganglia, vs Unlabelled T807
[14] = AD2, Basal ganglia, vs Unlabelled THK5351
[15] = AD2, Frontal cortex, vs Unlabelled T807
[16] = AD2, Frontal cortex, vs Unlabelled THK5351
[17] = AD2, Insula, vs Unlabelled T807
[18] = AD2, Insula, vs Unlabelled THK5351
[19] = AD2, Temporal cortex, vs Unlabelled T807
[20] = AD2, Temporal cortex, vs Unlabelled THK5351
[21] = AD3, Basal ganglia, vs Unlabelled T807
[22] = AD3, Basal ganglia, vs Unlabelled THK5351
[23] = AD3, Frontal cortex, vs Unlabelled T807
[24] = AD3, Frontal cortex, vs Unlabelled THK5351
[25] = AD3, Insula, vs Unlabelled T807
[26] = AD3, Insula, vs Unlabelled THK5351
[27] = AD3, Temporal cortex, vs Unlabelled T807
[28] = AD3, Temporal cortex, vs Unlabelled THK5351

Sequence of tau (Homo sapiens, UniProt P10636) (P10636 623-695 limits assumed): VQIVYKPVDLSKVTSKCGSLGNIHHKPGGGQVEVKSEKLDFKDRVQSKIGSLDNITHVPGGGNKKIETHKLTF

SMILES: CNc1ccc(-c2ccc3cc(OC[C@H](O)CF)ccc3n2)cn1 [THK5351]
- pKi (tau [1]): 7.80
- ^3H-THK5351 binding displaced (tau [2]): 70–80%

SMILES: [11CH3]Nc1ccc(-c2ccc3cc(OC[C@H](O)CF)ccc3n2)cn1 [^11C-THK5351, (S)-1-fluoro-3-(2-(6-([^11C]methylamino)pyridin-3-yl)quinolin-6-yloxy)propan-2-ol]
- % of specific binding (tau [3]; [5]): 41%
- NSP Binding (tau [3]; [5]): 10866
- Specific Binding (tau [3]; [5]): 7578
- Total Binding (tau [3]; [5]): 18444
- % of specific binding (tau [3]; [6]): 40%
- NSP Binding (tau [3]; [6]): 7577
- Specific Binding (tau [3]; [6]): 5118
- Total Binding (tau [3]; [6]): 12694
- % of specific binding (tau [3]; [7]): 24%
- NSP Binding (tau [3]; [7]): 15579
- Specific Binding (tau [3]; [7]): 4789
- Total Binding (tau [3]; [7]): 20368
- % of specific binding (tau [3]; [8]): 40%
- NSP Binding (tau [3]; [8]): 8920
- Specific Binding (tau [3]; [8]): 5917
- Total Binding (tau [3]; [8]): 14837
- % of specific binding (tau [3]; [9]): 25%
- NSP Binding (tau [3]; [9]): 13255
- Specific Binding (tau [3]; [9]): 4421
- Total Binding (tau [3]; [9]): 17677
- % of specific binding (tau [3]; [10]): 33%
- NSP Binding (tau [3]; [10]): 8376
- Specific Binding (tau [3]; [10]): 4085
- Total Binding (tau [3]; [10]): 12461
- % of specific binding (tau [3]; [11]): 14%
- NSP Binding (tau [3]; [11]): 14662
- Specific Binding (tau [3]; [11]): 2328
- Total Binding (tau [3]; [11]): 16990
- % of specific binding (tau [3]; [12]): 29%
- NSP Binding (tau [3]; [12]): 8202
- Specific Binding (tau [3]; [12]): 3386
- Total Binding (tau [3]; [12]): 11587
- % of specific binding (tau [3]; [13]): 38%
- NSP Binding (tau [3]; [13]): 11830
- Specific Binding (tau [3]; [13]): 7177
- Total Binding (tau [3]; [13]): 19008
- % of specific binding (tau [3]; [14]): 68%
- NSP Binding (tau [3]; [14]): 6390
- Specific Binding (tau [3]; [14]): 13566
- Total Binding (tau [3]; [14]): 19956
- % of specific binding (tau [3]; [15]): 18%
- NSP Binding (tau [3]; [15]): 14824
- Specific Binding (tau [3]; [15]): 3344
- Total Binding (tau [3]; [15]): 18167
- % of specific binding (tau [3]; [16]): 69%
- NSP Binding (tau [3]; [16]): 6755
- Specific Binding (tau [3]; [16]): 15381
- Total Binding (tau [3]; [16]): 22136
- % of specific binding (tau [3]; [17]): 28%
- NSP Binding (tau [3]; [17]): 13363
- Specific Binding (tau [3]; [17]): 5076
- Total Binding (tau [3]; [17]): 18439
- % of specific binding (tau [3]; [18]): 59%
- NSP Binding (tau [3]; [18]): 6886
- Specific Binding (tau [3]; [18]): 9948
- Total Binding (tau [3]; [18]): 16834
- % of specific binding (tau [3]; [19]): 39%
- NSP Binding (tau [3]; [19]): 13589
- Specific Binding (tau [3]; [19]): 8683
- Total Binding (tau [3]; [19]): 22271
- % of specific binding (tau [3]; [20]): 59%
- NSP Binding (tau [3]; [20]): 6673
- Specific Binding (tau [3]; [20]): 9437
- Total Binding (tau [3]; [20]): 16110
- % of specific binding (tau [3]; [21]): 47%
- NSP Binding (tau [3]; [21]): 10872
- Specific Binding (tau [3]; [21]): 9821
- Total Binding (tau [3]; [21]): 20693
- % of specific binding (tau [3]; [22]): 38%
- NSP Binding (tau [3]; [22]): 6733
- Specific Binding (tau [3]; [22]): 4207
- Total Binding (tau [3]; [22]): 10939
- % of specific binding (tau [3]; [23]): 38%
- NSP Binding (tau [3]; [23]): 14792
- Specific Binding (tau [3]; [23]): 8959
- Total Binding (tau [3]; [23]): 23751
- % of specific binding (tau [3]; [24]): 48%
- NSP Binding (tau [3]; [24]): 7079
- Specific Binding (tau [3]; [24]): 6431
- Total Binding (tau [3]; [24]): 13509
- % of specific binding (tau [3]; [25]): 29%
- NSP Binding (tau [3]; [25]): 13574
- Specific Binding (tau [3]; [25]): 5447
- Total Binding (tau [3]; [25]): 19021
- % of specific binding (tau [3]; [26]): 37%
- NSP Binding (tau [3]; [26]): 6903
- Specific Binding (tau [3]; [26]): 3972
- Total Binding (tau [3]; [26]): 10875
- % of specific binding (tau [3]; [27]): 34%
- NSP Binding (tau [3]; [27]): 12673
- Specific Binding (tau [3]; [27]): 6479
- Total Binding (tau [3]; [27]): 19153
- % of specific binding (tau [3]; [28]): 36%
- NSP Binding (tau [3]; [28]): 6717
- Specific Binding (tau [3]; [28]): 3813
- Total Binding (tau [3]; [28]): 10529

SMILES: [18F]c1ccc(-c2ccc3c(c2)[nH]c2ccncc23)cn1 [^18F-T807, 7-(6-[^18F]fluoropyridin-3yl)-5H-pyrido(4,3-b)indole]
- % of specific binding (tau [4]; AD1, Basal ganglia): 24%
- NSP Binding (tau [4]; AD1, Basal ganglia): 1895
- Specific Binding (tau [4]; AD1, Basal ganglia): 599
- Total Binding (tau [4]; AD1, Basal ganglia): 2495
- % of specific binding (tau [4]; AD1, Frontal cortex): 41%
- NSP Binding (tau [4]; AD1, Frontal cortex): 2028
- Specific Binding (tau [4]; AD1, Frontal cortex): 1388
- Total Binding (tau [4]; AD1, Frontal cortex): 3416
- % of specific binding (tau [4]; AD1, Insula): 33%
- NSP Binding (tau [4]; AD1, Insula): 1851
- Specific Binding (tau [4]; AD1, Insula): 893
- Total Binding (tau [4]; AD1, Insula): 2744
- % of specific binding (tau [4]; AD1, Temporal cortex): 28%
- NSP Binding (tau [4]; AD1, Temporal cortex): 2018
- Specific Binding (tau [4]; AD1, Temporal cortex): 784
- Total Binding (tau [4]; AD1, Temporal cortex): 2802
- % of specific binding (tau [4]; AD2, Basal ganglia): 25%
- NSP Binding (tau [4]; AD2, Basal ganglia): 1713
- Specific Binding (tau [4]; AD2, Basal ganglia): 567
- Total Binding (tau [4]; AD2, Basal ganglia): 2280
- % of specific binding (tau [4]; AD2, Frontal cortex): 24%
- NSP Binding (tau [4]; AD2, Frontal cortex): 1901
- Specific Binding (tau [4]; AD2, Frontal cortex): 586
- Total Binding (tau [4]; AD2, Frontal cortex): 2488
- Total Binding (tau [4]; AD2, Insula): 2469
- % of specific binding (tau [4]; AD2, Temporal cortex): 46%
- NSP Binding (tau [4]; AD2, Temporal cortex): 1801
- Specific Binding (tau [4]; AD2, Temporal cortex): 1526
- Total Binding (tau [4]; AD2, Temporal cortex): 3327
- % of specific binding (tau [4]; AD3, Basal ganglia): 31%
- NSP Binding (tau [4]; AD3, Basal ganglia): 1639
- Specific Binding (tau [4]; AD3, Basal ganglia): 733
- Total Binding (tau [4]; AD3, Basal ganglia): 2372
- % of specific binding (tau [4]; AD3, Frontal cortex): 40%
- NSP Binding (tau [4]; AD3, Frontal cortex): 1916
- Specific Binding (tau [4]; AD3, Frontal cortex): 1296
- Total Binding (tau [4]; AD3, Frontal cortex): 3212
- % of specific binding (tau [4]; AD3, Insula): 22%
- NSP Binding (tau [4]; AD3, Insula): 1836
- Specific Binding (tau [4]; AD3, Insula): 509
- Total Binding (tau [4]; AD3, Insula): 2346
- % of specific binding (tau [4]; AD3, Temporal cortex): 16%
- NSP Binding (tau [4]; AD3, Temporal cortex): 1975
- Specific Binding (tau [4]; AD3, Temporal cortex): 374
- Total Binding (tau [4]; AD3, Temporal cortex): 2349
